Test results from ChEMBL document CHEMBL3045033, “Synthesis of new potential anticancer agents based on 4-thiazolidinone and oleanane scaffolds” (Med Chem Res, 2012).

Legend:
HOP-92 = assay: Cytotoxicity against Homo sapiens (human) HOP92 cells after 48 hr by SRB assay; type: functional; settings: HOP-92, 48 h
U-251 = assay: Cytotoxicity against Homo sapiens (human) U251 cells assessed as cellular growth at 10^-5 M after 48 hr by SRB assay relative to untreated control; type: functional
MCF7 = assay: Cytotoxicity against Homo sapiens (human) MCF7 cells assessed as cellular growth at 10^-5 M after 48 hr by SRB assay relative to untreated control; type: functional
OVCAR-8 = assay: Cytotoxicity against Homo sapiens (human) OVCAR8 cells assessed as cellular growth at 10^-5 M after 48 hr by SRB assay relative to untreated control; type: functional
NCI-H460 = assay: Cytotoxicity against Homo sapiens (human) NCI-H460 cells assessed as cellular growth at 10^-5 M after 48 hr by SRB assay relative to untreated control; type: functional
K562 = assay: Cytotoxicity against Homo sapiens (human) K562 cells after 48 hr by SRB assay; type: functional; settings: K562, 48 h
A549 [1] = assay: Cytotoxicity against Homo sapiens (human) A549 cells assessed as cellular growth at 10^-5 M after 48 hr by SRB assay relative to untreated control; type: functional
A549 [2] = assay: Cytotoxicity against Homo sapiens (human) A549 cells after 48 hr by SRB assay; type: functional; settings: A549, 48 h
HCT-116 = assay: Cytotoxicity against Homo sapiens (human) HCT116 cells assessed as cellular growth at 10^-5 M after 48 hr by SRB assay relative to untreated control; type: functional
MOLT-4 [3] = assay: Cytotoxicity against Homo sapiens (human) MOLT4 cells after 48 hr by SRB assay; type: functional; settings: MOLT-4, 48 h
NCI-H522 = assay: Cytotoxicity against Homo sapiens (human) NCI-H522 cells assessed as cellular growth at 10^-5 M after 48 hr by SRB assay relative to untreated control; type: functional
NCI-H23 = assay: Cytotoxicity against Homo sapiens (human) NCI-H23 cells after 48 hr by SRB assay; type: functional; settings: NCI-H23, 48 h
Hs-578T = assay: Cytotoxicity against Homo sapiens (human) Hs578T cells assessed as cellular growth at 10^-5 M after 48 hr by SRB assay relative to untreated control; type: functional
MDA-MB-468 [4] = assay: Cytotoxicity against Homo sapiens (human) MDA-MB-468 cells after 48 hr by SRB assay; type: functional; settings: MDA-MB-468, 48 h, read-out: pLC50 (the source's name) (converted)
A498 = assay: Cytotoxicity against Homo sapiens (human) A498 cells assessed as cellular growth at 10^-5 M after 48 hr by SRB assay relative to untreated control; type: functional
Malme-3M = assay: Cytotoxicity against Homo sapiens (human) MALME-3M cells at 10^-4 to 10^-8 M after 48 hr by SRB assay; type: functional; settings: read-out: pTGI (converted)
SF-295 = assay: Cytotoxicity against Homo sapiens (human) SF295 cells assessed as cellular growth at 10^-5 M after 48 hr by SRB assay relative to untreated control; type: functional
MOLT-4 [5] = assay: Cytotoxicity against Homo sapiens (human) MOLT4 cells assessed as cellular growth at 10^-5 M after 48 hr by SRB assay relative to untreated control; type: functional
TK-10 = assay: Cytotoxicity against Homo sapiens (human) TK10 cells assessed as cellular growth at 10^-5 M after 48 hr by SRB assay relative to untreated control; type: functional
[6] = Toxicity in mouse; type: organism-based; settings: in vivo
CCRF-CEM = assay: Cytotoxicity against Homo sapiens (human) CCRF-CEM cells assessed as cellular growth at 10^-5 M after 48 hr by SRB assay relative to untreated control; type: functional
T47D = assay: Cytotoxicity against Homo sapiens (human) T47D cells assessed as cellular growth at 10^-5 M after 48 hr by SRB assay relative to untreated control; type: functional
HL-60(TB) = assay: Cytotoxicity against Homo sapiens (human) HL-60(TB) cells assessed as cellular growth at 10^-5 M after 48 hr by SRB assay relative to untreated control; type: functional
MDA-MB-468 [7] = assay: Cytotoxicity against Homo sapiens (human) MDA-MB-468 cells at 10^-4 to 10^-8 M after 48 hr by SRB assay; type: functional; settings: MDA-MB-468, 48 h, read-out: pTGI (converted)

Question: Which results are given for COC(=O)[C@]12CCC(C)(C)C[C@H]1C1=CC[C@@H]3[C@@]4(C)CC/C(=N\O)C(C)(C)[C@@H]4CC[C@@]3(C)[C@]1(C)CC2?
Answer: GI50 (HOP-92): 19.1 µM; Activity (U-251): 33.89%; Activity (MCF7): 26.08%; Activity (OVCAR-8): 11.3%; Activity (NCI-H460): 44.14%; GI50 (K562): 37.2 µM; Activity (A549 [1]): -41.06%; GI50 (A549 [2]): 28.8 µM; Activity (HCT-116): 3.39%; GI50 (MOLT-4 [3]): 37.2 µM; Activity (NCI-H522): 23.74%; GI50 (NCI-H23): 20 µM

Question: For CC1(C)CC[C@@]23CC[C@]4(C)[C@@](OC2=O)([C@@H]3C1)[C@@H](Br)C[C@@H]1[C@@]2(C)CC/C(=N\O)C(C)(C)[C@@H]2CC[C@]14C, which GI50 (HOP-92) is on record?
Answer: The GI50 was 4.37 µM.

Question: What about the Activity (Hs-578T) of the same compound?
Answer: The Activity was 258.88%.

Question: What about the GI50 (K562) of the same compound?
Answer: The GI50 was 56.2 µM.

Question: And the CC50 (MDA-MB-468 [4])?
Answer: Its CC50 is over 100 µM.

Question: What about the GI50 (A549 [2]) of the same compound?
Answer: Its GI50 is 17.8 µM.

Question: What about the Activity (A498) of the same compound?
Answer: The Activity was 150.51%.

Question: What about the TGI (Malme-3M) of the same compound?
Answer: Its TGI is 23.4 µM.

Question: What about the GI50 (MOLT-4 [3]) of the same compound?
Answer: Its GI50 is 14.1 µM.

Question: What about the Activity (SF-295) of the same compound?
Answer: Its Activity is 19.14%.

Question: What about the Activity (MOLT-4 [5]) of the same compound?
Answer: The Activity was 20.29%.

Question: And the Activity (TK-10)?
Answer: Its Activity is 31.05%.

Question: And the GI50 (NCI-H23)?
Answer: Its GI50 is 38 µM.

Question: Which MTD [6] does the source give for COC(=O)[C@]12CCC(C)(C)C[C@H]1C1=CC[C@@H]3[C@@]4(C)CC/C(=N\OC(=O)/C=C5/SC(=O)NC5=O)C(C)(C)[C@@H]4CC[C@@]3(C)[C@]1(C)CC2 here?
Answer: Its MTD is over 400 mg/kg.

Question: What about the Activity (CCRF-CEM) of the same compound?
Answer: The Activity was -24.8%.

Question: And the Activity (T47D)?
Answer: The Activity was 9.18%.

Question: And the TGI (Malme-3M)?
Answer: Its TGI is 7.76 µM.

Question: What about the Activity (MOLT-4 [5]) of the same compound?
Answer: Its Activity is 2.28%.

Question: And the Activity (HL-60(TB))?
Answer: The Activity was -46.91%.

Question: What about the TGI (MDA-MB-468 [7]) of the same compound?
Answer: The TGI was 6.61 µM.
